Results on 25 molecules are retold here after patent US11612606B2, “8-aminoisoquinoline compounds and uses thereof” (priority 2018, dated 2023).

The structures appear in SMILES notation. Counter-ions that a name gives are not always drawn. Like-named read-outs stand apart in the source and are kept apart here.

For orientation: Ki means the equilibrium dissociation constant of an inhibitor or competing ligand from its target.

Assay [1] deals with HPK full length, T165E S171E (Homo sapiens (Human), UniProt Q92918, S171E/T165E). Kind of assay: HPK1-FL HTRF enzymatic assay ("HTRF"). In kind it is biochemical. The conditions noted are these: ATP 1 mM, read-out: HPK1 Ki. The essentials:
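Full-length HPK1 (T165E/S171E) was preincubated 30 min with compound, then reacted 60 min with biotin-SLP-76 and 1 mM ATP. Phospho-SLP-76 was detected by HTRF (Eu-anti-pSLP76 antibody, SA-XL665) after a further 60 min.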

Assay [2] relates to primary human pan T cells. In words: Human T-cell IL2 induction assay. In kind it is cell-based. Here is the method: Assay Principle: Anti-CD3 and anti-CD28 activates TCR signaling in primary human pan T cells leading to IL-2 promoter induction. Secreted IL-2 in cell culture supernatant is detected by electrochemiluminescence using a capture antibody against IL-2 and an anti-IL-2 antibody labeled with SULFO-tag. Also see www.mesoscale.com for additional electrochemiluminescence technology information.
Assay Procedure: Incubate primary human pan T cells with varying concentrations of test compounds for 30 minutes in a humidified incubator at 37° C. and 5% CO2. Transfer cells to a plate pre-coated with a fixed concentration of anti-human CD3 (determined separately for each donor lot) and add soluble anti-human CD28 (final concentration=1 μg/ml). Stimulate cells in a humidified incubator at 37° C. and 5% CO2 for 4 hours. Transfer 25 μl of supernatant to a MSD single spot plate pre-coated with an anti-human IL-2 antibody. Incubate MSD plate overnight at 4° C. with gentle shaking. Wash MSD plate 4× with wash buffer. Add SULFO-tagged detection antibody at a 1:50 dilution and incubate at room temperature shaking for 2 hours. Wash MSD plate 4× with wash buffer and add 150 μl 2×MSD read buffer. Read on an MSD instrument. Normalize data to stimulated/untreated controls to calculate % activity at each concentration of compound.
Instrumentation: • Biomek FX for liquid handling (Beckman Coulter) • MSD SECTOR S 600 (Meso Scale Discovery)
Exemplary compounds of Formula (I) were tested in the human T-cell IL-2 induction assays.

HPK full length, T165E S171E, sequence (Q92918 whole entry T165E/S171E, looked up): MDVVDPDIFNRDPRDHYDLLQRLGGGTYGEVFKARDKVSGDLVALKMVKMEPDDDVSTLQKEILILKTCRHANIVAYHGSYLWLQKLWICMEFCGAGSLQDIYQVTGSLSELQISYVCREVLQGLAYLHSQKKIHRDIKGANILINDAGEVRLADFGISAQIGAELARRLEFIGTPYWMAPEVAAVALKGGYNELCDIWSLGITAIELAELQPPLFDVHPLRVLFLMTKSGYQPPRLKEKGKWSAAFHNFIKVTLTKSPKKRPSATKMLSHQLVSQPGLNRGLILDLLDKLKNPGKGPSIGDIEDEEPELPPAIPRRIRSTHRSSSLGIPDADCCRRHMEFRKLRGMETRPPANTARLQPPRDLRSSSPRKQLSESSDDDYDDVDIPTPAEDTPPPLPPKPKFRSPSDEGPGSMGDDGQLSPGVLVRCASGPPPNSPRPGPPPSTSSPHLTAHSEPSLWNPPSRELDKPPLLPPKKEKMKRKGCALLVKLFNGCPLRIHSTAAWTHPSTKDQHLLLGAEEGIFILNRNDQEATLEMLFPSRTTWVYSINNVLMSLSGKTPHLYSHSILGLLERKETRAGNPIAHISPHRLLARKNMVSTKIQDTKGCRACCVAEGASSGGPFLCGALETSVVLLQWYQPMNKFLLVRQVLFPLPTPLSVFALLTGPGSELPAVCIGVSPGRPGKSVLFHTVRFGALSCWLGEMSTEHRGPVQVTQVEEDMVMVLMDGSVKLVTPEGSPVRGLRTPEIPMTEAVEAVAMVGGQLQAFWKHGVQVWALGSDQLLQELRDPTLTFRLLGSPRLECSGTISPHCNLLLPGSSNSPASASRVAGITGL

For the molecule `Cc1c(-c2cc3cc(NC(=O)O[C@H]4COC[C@@H]4F)ncc3c(N)c2F)cnc2c1NCCO2` (single isomer, unassigned) [Compound 477b], the Ki in assay [1] came out at 17 pM. Also, the “% IL-2 increase relative to untreated cells” value in assay [2] (assayed concentration 5.469 μM) is listed as 1494%. In the case of `Cc1c(-c2cc3cc(NC(=O)O[C@H]4CCC[C@@H]4C#N)ncc3c(N)c2F)cnc2c1NCCO2` (single isomer, unassigned) [Compound 482b], the Ki in assay [1] is less than 13 pM. For the same molecule, the “% IL-2 increase relative to untreated cells” value in assay [2] (assayed concentration 2.778 μM) was 1719%.

Turning to `Cc1c(-c2cc3cc(NC(=O)O[C@@H]4CCC(=O)N(C)C4)ncc3c(N)c2F)cnc2c1NCCO2` [Compound 409b, (R)-1-Methyl-6-oxopiperidin-3-yl (8-amino-7-fluoro-6-(8-methyl-2,3-dihydro-1H-pyrido[2,3-b][1,4]oxazin-7-yl)isoquinolin-3-yl)carbamate], in assay [1], the Ki worked out at 48 pM. The “% IL-2 increase relative to untreated cells” value in assay [2] (assayed concentration 2.778 μM) amounted to 2838%. Take `Cc1c(-c2cc3cc(NC(=O)O[C@H]4CCN(C)C4)ncc3c(N)c2F)cnc2c1NCCO2` [Compound 411a, (S)-1-Methylpyrrolidin-3-yl (8-amino-7-fluoro-6-(8-methyl-2,3-dihydro-1H-pyrido[2,3-b][1,4]oxazin-7-yl)isoquinolin-3-yl)carbamate]: the Ki in assay [1] came out at 250 pM. For the same molecule, the “% IL-2 increase relative to untreated cells” value in assay [2] (assayed concentration 2.778 μM) was 2119%. In the same order, the values of `Cc1c(-c2cc3cc(NC(=O)O[C@@H]4CCCN(C)C4)ncc3c(N)c2F)cnc2c1NCCO2` [Compound 416a, (R)-1-Methylpiperidin-3-yl (8-amino-7-fluoro-6-(8-methyl-2,3-dihydro-1H-pyrido[2,3-b][1,4]oxazin-7-yl)isoquinolin-3-yl)carbamate] are 75 pM and 2989%. In the case of `Cc1c(-c2cc3cc(NC(=O)O[C@@H]4CCN(C5COC5)C[C@H]4F)ncc3c(N)c2F)cnc2c1NCCO2` [Compound 445b, (3R,4R)-3-Fluoro-1-(oxetan-3-yl)piperidin-4-yl(8-amino-7-fluoro-6-(8-methyl-2,3-dihydro-1H-pyrido[2,3-b][1,4]oxazin-7-yl)isoquinolin-3-yl)carbamate], the “% IL-2 increase relative to untreated cells” value in assay [2] (assayed concentration 2.778 μM) amounted to 1436%.

Take `Cc1c(-c2cc3cc(NC(=O)OC4CC(C)(O)C4)ncc3c(N)c2F)cnc2c1NCCO2` (stereo not shown) [Compound 486, (3-Hydroxy-3-methyl-cyclobutyl) N-[8-amino-7-fluoro-6-(8-methyl-2,3-dihydro-1H-pyrido[2,3-b][1,4]oxazin-7-yl)-3-isoquinolyl]carbamate]: the Ki in assay [1] was less than 13 pM. The “% IL-2 increase relative to untreated cells” value in assay [2] (assayed concentration 2.778 μM) was 1400%. With `CC[C@]1(O)C[C@H](OC(=O)Nc2cc3cc(-c4cnc5c(c4C)NCCO5)c(F)c(N)c3cn2)C1` [Compound 512b, (1r,3s)-3-Ethyl-3-hydroxycyclobutyl (8-amino-7-fluoro-6-(8-methyl-2,3-dihydro-1H-pyrido[2,3-b][1,4]oxazin-7-yl)isoquinolin-3-yl)carbamate hydrochloride], the Ki in assay [1] (hydrochloride) was less than 13 pM. Also, the “% IL-2 increase relative to untreated cells” value in assay [2] (assayed concentration 2.778 μM) is 2613%.

As for `Cc1c(-c2cc3cc(NC(=O)O[C@H]4C[C@@](C)(O)[C@H]4C)ncc3c(N)c2F)cnc2c1NCCO2` [Compound 526b, (1S,2S,3R)-3-Hydroxy-2,3-dimethylcyclobutyl (8-amino-7-fluoro-6-(8-methyl-2,3-dihydro-1H-pyrido[2,3-b][1,4]oxazin-7-yl)isoquinolin-3-yl)carbamate], the Ki in assay [1] worked out at 16 pM. Also, the “% IL-2 increase relative to untreated cells” value in assay [2] (assayed concentration 2.778 μM) worked out at 970%.

With `Cc1c(-c2cc3cc(NC(=O)O[C@H]4C[C@](C)(O)[C@@H]4C)ncc3c(N)c2F)cnc2c1NCCO2` [Compound 526c, (1S,2R,3S)-3-Hydroxy-2,3-dimethylcyclobutyl (8-amino-7-fluoro-6-(8-methyl-2,3-dihydro-1H-pyrido[2,3-b][1,4]oxazin-7-yl)isoquinolin-3-yl)carbamate], the Ki in assay [1] stood at 15 pM. Moreover, the “% IL-2 increase relative to untreated cells” value in assay [2] (assayed concentration 2.778 μM) is on record as 1677%. For `Cc1c(-c2cc3cc(NC(=O)O[C@H]4C[C@@H](CC#N)C4)ncc3c(N)c2F)cnc2c1NCCO2` [Compound 536b, (1s,3r)-3-(Cyanomethyl)cyclobutyl (8-amino-7-fluoro-6-(8-methyl-2,3-dihydro-1H-pyrido[2,3-b][1,4]oxazin-7-yl)isoquinolin-3-yl)carbamate], the “% IL-2 increase relative to untreated cells” value in assay [2] (assayed concentration 8.333 μM) amounted to 2280%. Regarding `Cc1c(-c2cc3cc(NC(=O)N[C@H]4C[C@H]4F)ncc3c(N)c2F)cnc2c1NCCO2` [Compound 734a, 1-[8-Amino-7-fluoro-6-(8-methyl-2,3-dihydro-1H-pyrido[2,3-b][1,4]oxazin-7-yl)-3-isoquinolyl]-3-[(1S,2R)-2-fluorocyclopropyl]urea], the inhibition constant Ki in assay [1] was less than 13 pM. The same measure, in the same setting: the value for `Cc1c(-c2cc3cc(NC(=O)NC4CC5(C4)CN(CC(F)F)C5)ncc3c(N)c2F)cnc2c1NCCC2` [Compound 739, 1-(8-Amino-7-fluoro-6-(4-methyl-5,6,7,8-tetrahydro-1,5-naphthyridin-3-yl)isoquinolin-3-yl)-3-(2-(2,2-difluoroethyl)-2-azaspiro[3.3]heptan-6-yl)urea] was less than 13 pM.

For the molecule `Cc1c(-c2cc3cc(NC(=O)N[C@H]4C[C@]5(CCOC5)C4)ncc3c(N)c2F)cnc2c1NCCC2` [Compound 740a, 1-(8-Amino-7-fluoro-6-(4-methyl-5,6,7,8-tetrahydro-1,5-naphthyridin-3-yl)isoquinolin-3-yl)-3-((2s,4s)-6-oxaspiro[3.4]octan-2-yl)urea], in assay [1], the Ki was less than 13 pM. Still for that read-out and setting: next, `Cc1c(-c2cc3cc(NC(=O)N[C@H]4C[C@@]5(CCOC5)C4)ncc3c(N)c2F)cnc2c1NCCC2` [Compound 740b, 1-(8-Amino-7-fluoro-6-(4-methyl-5,6,7,8-tetrahydro-1,5-naphthyridin-3-yl)isoquinolin-3-yl)-3-((2r,4r)-6-oxaspiro[3.4]octan-2-yl)urea]: less than 13 pM; `Cc1c(-c2cc3cc(NC(=O)N(C)C)ncc3c(N)c2F)cnc2c1NCCO2` [Compound 742, 3-(8-Amino-7-fluoro-6-(8-methyl-2,3-dihydro-1H-pyrido[2,3-b][1,4]oxazin-7-yl)isoquinolin-3-yl)-1,1-dimethylurea]: 1120 pM; `Cc1c(-c2cc3cc(NC(=O)N4CCCC4)ncc3c(N)c2F)cnc2c1NCCO2` [Compound 745, N-(8-Amino-7-fluoro-6-(8-methyl-2,3-dihydro-1H-pyrido[2,3-b][1,4]oxazin-7-yl)isoquinolin-3-yl)pyrrolidine-1-carboxamide]: 290 pM. Same read-out and setting: the value for `Cc1c(-c2cc3cc(NC(=O)NC(C)C)ncc3c(N)c2F)cnc2c1NCCO2` [Compound 746, 1-(8-Amino-7-fluoro-6-(8-methyl-2,3-dihydro-1H-pyrido[2,3-b][1,4]oxazin-7-yl)isoquinolin-3-yl)-3-isopropylurea] was less than 13 pM; that for `Cc1c(-c2cc3cc(NC(=O)N[C@H]4C[C@@H](F)C4)ncc3c(N)c2F)cnc2c1NCCO2` [Compound 748a, 1-(8-Amino-7-fluoro-6-(8-methyl-2,3-dihydro-1H-pyrido[2,3-b][1,4]oxazin-7-yl)isoquinolin-3-yl)-3-((1s,3s)-3-fluorocyclobutyl)urea] was less than 13 pM; that for `Cc1c(-c2cc3cc(NC(=O)N[C@H]4C[C@H](F)C4)ncc3c(N)c2F)cnc2c1NCCO2` [Compound 748b, 1-(8-Amino-7-fluoro-6-(8-methyl-2,3-dihydro-1H-pyrido[2,3-b][1,4]oxazin-7-yl)isoquinolin-3-yl)-3-((1r,3r)-3-fluorocyclobutyl)urea] was 18 pM. As for `Cc1c(N)cncc1-c1cc2cc(NC(=O)NC3CCCC3)ncc2c(N)c1F` [Compound 749, 1-(8-Amino-6-(5-amino-4-methylpyridin-3-yl)-7-fluoroisoquinolin-3-yl)-3-cyclopentylurea], the Ki in assay [1] came to 102 pM. On the same count and under the same terms, next, `Cc1c(-c2cc3cc(NC(=O)N(C)C4CCC4)ncc3c(N)c2F)cnc2c1NCCO2` [Compound 752, 3-(8-Amino-7-fluoro-6-(8-methyl-2,3-dihydro-1H-pyrido[2,3-b][1,4]oxazin-7-yl)isoquinolin-3-yl)-1-cyclobutyl-1-methylurea]: 520 pM; `Cc1c(-c2cc3cc(NC(=O)N4CC5(CCOCC5)C4)ncc3c(N)c2F)cnc2c1NCCO2` [Compound 753, N-(8-Amino-7-fluoro-6-(8-methyl-2,3-dihydro-1H-pyrido[2,3-b][1,4]oxazin-7-yl)isoquinolin-3-yl)-7-oxa-2-azaspiro[3.5]nonane-2-carboxamide]: 39 pM; `Cc1c(-c2cc3cc(NC(=O)N4CC(C)(O)C4)ncc3c(N)c2F)cnc2c1NCCO2` [Compound 754]: 205 pM. For the molecule `Cc1c(-c2cc3cc(NC(=O)N4CCC4)ncc3c(N)c2F)cnc2c1NCCO2` [Compound 756, N-(8-Amino-7-fluoro-6-(8-methyl-2,3-dihydro-1H-pyrido[2,3-b][1,4]oxazin-7-yl)isoquinolin-3-yl)azetidine-1-carboxamide], in assay [1], the Ki is 20 pM.
